These are literature values, as cited in US20130195827A1, “NUTRIGENOMIC METHODS TO OVERCOME CARBOHYDRATE BINGEING AND OVEREATING” (priority 2011, published 2013).

The subject of one series is lipolysis. The note with it: in vitro, p<0.01.

`C[C@]12CCC(=O)C=C1CC[C@@H]1[C@@H]2[C@@H](O)C[C@@]2(C)[C@H]1CC[C@]2(O)C(=O)CO` [cortisol]: in the series with lipolysis, the “basal rate of lipolysis” value was “significantly reduced”.

For Insulin: hormone insulin, in the series with leptin secretion, the “increase of leptin secretion” value was 25%.
